Experimental data from ChEMBL document CHEMBL1145568, “Opioids and efflux transporters. Part 3: P-glycoprotein substrate activity of 3-hydroxyl addition to meperidine analogs” (Bioorg Med Chem Lett, 2008).
Structures can show the parent of a compound that is named as a salt.

Target: P-gp (ABCB1) ATPase (Homo sapiens, UniProt P08183)
Assay: Stimulation of Pgp ATPase activity at 200 uM by Pgp-Glo assay system relative to control
Conditions: read-out: Fold change

Chain of P-gp (ABCB1) ATPase (P08183 whole entry): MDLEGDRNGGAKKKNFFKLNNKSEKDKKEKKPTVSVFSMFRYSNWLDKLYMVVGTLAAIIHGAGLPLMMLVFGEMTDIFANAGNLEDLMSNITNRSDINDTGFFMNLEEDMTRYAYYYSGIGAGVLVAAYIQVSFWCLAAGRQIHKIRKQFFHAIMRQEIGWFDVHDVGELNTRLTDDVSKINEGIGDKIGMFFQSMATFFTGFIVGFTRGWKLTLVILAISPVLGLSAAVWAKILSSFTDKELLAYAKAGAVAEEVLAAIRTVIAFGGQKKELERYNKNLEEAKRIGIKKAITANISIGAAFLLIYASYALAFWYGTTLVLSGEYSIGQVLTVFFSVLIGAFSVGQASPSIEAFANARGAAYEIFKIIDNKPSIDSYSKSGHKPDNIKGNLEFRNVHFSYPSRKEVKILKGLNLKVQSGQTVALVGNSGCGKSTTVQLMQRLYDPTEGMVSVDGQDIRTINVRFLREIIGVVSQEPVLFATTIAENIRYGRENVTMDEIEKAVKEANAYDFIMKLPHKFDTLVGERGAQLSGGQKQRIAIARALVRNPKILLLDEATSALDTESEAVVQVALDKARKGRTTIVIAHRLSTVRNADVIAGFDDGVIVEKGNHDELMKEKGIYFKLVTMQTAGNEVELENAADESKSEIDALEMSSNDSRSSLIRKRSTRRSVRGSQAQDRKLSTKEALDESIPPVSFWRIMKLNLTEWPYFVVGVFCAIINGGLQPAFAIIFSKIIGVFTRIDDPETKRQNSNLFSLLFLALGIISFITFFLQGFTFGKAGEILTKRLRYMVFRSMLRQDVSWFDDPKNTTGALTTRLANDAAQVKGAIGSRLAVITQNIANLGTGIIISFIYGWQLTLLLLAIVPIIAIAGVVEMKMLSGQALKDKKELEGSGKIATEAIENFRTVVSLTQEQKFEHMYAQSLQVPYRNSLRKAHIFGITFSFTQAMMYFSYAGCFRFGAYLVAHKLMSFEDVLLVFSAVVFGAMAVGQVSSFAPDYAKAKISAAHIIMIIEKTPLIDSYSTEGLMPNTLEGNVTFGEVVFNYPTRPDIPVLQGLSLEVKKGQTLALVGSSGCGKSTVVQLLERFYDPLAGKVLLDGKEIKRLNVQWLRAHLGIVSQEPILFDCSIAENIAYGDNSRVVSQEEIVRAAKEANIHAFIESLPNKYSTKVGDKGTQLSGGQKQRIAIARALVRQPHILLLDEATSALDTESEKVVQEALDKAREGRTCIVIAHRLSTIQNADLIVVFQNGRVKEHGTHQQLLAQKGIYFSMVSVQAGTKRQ

Compared with `CCOC(=O)C1(c2cccc(O)c2)CCN(C)CC1` [BEMIDONE], `CCC(=O)C1(c2cccc(O)c2)CCN(C)CC1` [KETOBEMIDONE OXALATE] is higher in fold induction at 200 µM: 2.64 for the first, 4.89 for the second.

First: CCOC(=O)C1(c2ccccc2)CCN(C)CC1 [PETHIDINE OXALATE]
Second: CCC(=O)C1(c2ccccc2)CCN(C)CC1
The fold induction at 200 µM of the first is higher: 1.78 for the first, 1.37 for the second.
